Test results: patent US6908919B2, “Substituted polycyclic aryl and heteroaryl pyrazinones useful for selective inhibition of the coagulation cascade” (Pharmacia Corporation, priority 1999, dated 2005)
Read-outs that look alike come from different tables or passages of the source. One block for each molecule: values may come before it.

Experiments:
[1] = molecular target: T1, recombinant soluble tissue factor and recombinant human factor VIIa (TF-VIIa) (Homo sapiens, UniProt P08709); assay: TF-VIIa Assay; type: biochemical
T1 construct: conversion of coagulation factor VII to VIIa by Xa; purchased American Diagnostica, Greenwich Conn; host or cells: VIIa purchased; soluble TF made in house in E. coli

Human factor Xa = Human factor Xa (Homo sapiens, UniProt P00742); assay: Xa Assay; type: biochemical; parameters: purchased Enzyme Research Laboratories, South Bend Ind; conditions: for % Inhibition Factor Xa (30 µM): at 30 µM inhibitor
Human factor Xa, sequence (P00742 41-179 limits assumed): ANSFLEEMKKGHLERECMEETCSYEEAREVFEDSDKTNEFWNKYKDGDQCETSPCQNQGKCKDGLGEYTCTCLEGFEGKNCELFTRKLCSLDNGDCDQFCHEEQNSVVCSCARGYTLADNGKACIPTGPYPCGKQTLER
Human factor Xa, sequence (P00742 235-488 limits assumed): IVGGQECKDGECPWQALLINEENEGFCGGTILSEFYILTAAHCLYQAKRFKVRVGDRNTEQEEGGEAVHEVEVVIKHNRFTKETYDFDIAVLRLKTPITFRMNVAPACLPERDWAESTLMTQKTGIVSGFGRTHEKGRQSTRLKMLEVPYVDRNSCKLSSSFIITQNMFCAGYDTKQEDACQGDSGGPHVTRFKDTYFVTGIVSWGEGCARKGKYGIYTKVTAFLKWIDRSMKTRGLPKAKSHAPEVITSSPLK

T1 sequence (P08709 61-212 limits assumed): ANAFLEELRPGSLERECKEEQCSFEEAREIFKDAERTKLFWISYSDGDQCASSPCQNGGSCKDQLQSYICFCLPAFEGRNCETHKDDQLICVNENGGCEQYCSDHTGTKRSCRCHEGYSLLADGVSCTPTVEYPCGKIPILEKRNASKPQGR
T1 sequence (P08709 213-466 limits assumed): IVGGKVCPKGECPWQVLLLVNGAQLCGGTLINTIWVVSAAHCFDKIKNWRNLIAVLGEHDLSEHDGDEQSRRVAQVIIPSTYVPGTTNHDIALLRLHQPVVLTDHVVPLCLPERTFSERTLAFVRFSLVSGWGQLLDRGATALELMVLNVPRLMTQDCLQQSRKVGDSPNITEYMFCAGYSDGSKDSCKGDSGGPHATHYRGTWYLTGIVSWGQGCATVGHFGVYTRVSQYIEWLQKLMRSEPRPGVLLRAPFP
T1 sequence (P13726 33-251 partner limits assumed): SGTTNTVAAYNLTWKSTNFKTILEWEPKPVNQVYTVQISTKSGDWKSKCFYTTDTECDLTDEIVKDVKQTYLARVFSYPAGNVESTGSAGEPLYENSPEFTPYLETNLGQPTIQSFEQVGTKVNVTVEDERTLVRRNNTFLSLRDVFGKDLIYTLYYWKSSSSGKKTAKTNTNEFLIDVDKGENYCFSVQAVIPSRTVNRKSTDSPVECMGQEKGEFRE

Structure (SMILES): N=C(N)c1ccc(CNC(=O)Cn2c(-c3ccccc3)c(Cl)nc(NCC(F)(F)F)c2=O)cc1 [1507-41]
% Inhibition TF-VIIa (30 µM) ([1]; at 30 µM inhibitor): 48%
% Inhibition Factor Xa (30 µM) (Human factor Xa): 17%

Structure (SMILES): N=C(N)c1ccc(CNC(=O)Cn2c(-c3ccccc3)c(Cl)nc(NCc3cc(F)cc(C(F)(F)F)c3)c2=O)cc1 [1512-29]
% Inhibition TF-VIIa (30 µM) ([1]; at 30 µM inhibitor): 47%
% Inhibition Factor Xa (30 µM) (Human factor Xa): 4%

Structure (SMILES): O=C(Cn1c(-c2ccc(-c3ccccc3)cc2)c(Cl)nc(NCCN2CCOCC2)c1=O)NCCc1ccncc1 [Example E-0055]
% Inhibition TF-VIIa (100 µM) [1]: 0%
% Inhibition Factor Xa (100 µM) (Human factor Xa): 0%

Structure (SMILES): COc1ccc(-c2c(Cl)nc(NCCc3cccnc3)c(=O)n2CC(=O)NCc2ccc(C(=N)N)cc2)cc1 [1471-40]
% Inhibition TF-VIIa (30 µM) ([1]; at 30 µM inhibitor): 40%
% Inhibition Factor Xa (30 µM) (Human factor Xa): 11%

Structure (SMILES): NC1=NCCSc2cc(CNC(=O)Cn3c(-c4cccc(N)c4)c(Cl)nc(NC4CCC4)c3=O)ccc21 [Example 154]
inhibition at 30 µM ([1]; 1 h, at 30 µM inhibitor): 7%
% Inhibition Factor Xa (30 µM) (Human factor Xa): 6%

Structure (SMILES): CC(CNc1nc(Cl)c(-c2cccc(N)c2)n(CC(=O)NCc2ccc(C(=N)N)cc2)c1=O)C(=O)O (stereo not shown) [Example 129]
IC50 ([1]; cell adds 'at 100 μM'): 58 nM
inhibition at 100 µM (Human factor Xa; at 100 μM inhibitor): 22%

Structure (SMILES): N=C(N)c1ccc(CNC(=O)Cn2c(-c3ccc(Cl)cc3)c(Cl)nc(NCc3ccncc3)c2=O)cc1 [1471-19]
% Inhibition TF-VIIa (30 µM) ([1]; at 30 µM inhibitor): 33%
% Inhibition Factor Xa (30 µM) (Human factor Xa): 26%

Structure (SMILES): N=C(N)c1ccc(CNC(=O)Cn2c(-c3ccccc3)c(Cl)nc(NCc3cccc(OC(F)(F)F)c3)c2=O)cc1 [1512-40]
% Inhibition TF-VIIa (30 µM) ([1]; at 30 µM inhibitor): 40%
% Inhibition Factor Xa (30 µM) (Human factor Xa): 3%

Structure (SMILES): C[C@@H](Nc1nc(Cl)c(-c2cccc(N)c2)n(CC(=O)NCc2ccc(C(=N)N)cc2)c1=O)C(=O)O [Example 134]
IC50 ([1]; read-out: IC50 TF-VIIa): 51 nM

Structure (SMILES): N=C(N)c1ccc(CNC(=O)Cn2c(-c3ccccc3)c(Cl)nc(NCc3cccc4ccccc34)c2=O)cc1 [1507-28]
% Inhibition TF-VIIa (30 µM) ([1]; at 30 µM inhibitor): 38%

Structure (SMILES): CC(C)Nc1nc(Cl)c(-c2cc(N)cc(C(=O)O)c2)n(CC(=O)NCc2ccc(C(=N)N)cc2)c1=O [Example 123]
IC50 ([1]; read-out: IC50 TF-VIIa): 20 nM

Structure (SMILES): N=C(N)c1ccc(CNC(=O)Cn2c(-c3ccccc3)c(Cl)nc(NC(Cc3ccccc3)c3ccccc3)c2=O)cc1 (stereo not shown) [1507-07]
% Inhibition TF-VIIa (30 µM) ([1]; at 30 µM inhibitor): 25%

Structure (SMILES): N=C(N)c1ccc(CNC(=O)Cn2c(-c3ccccc3)c(Cl)nc(NCc3ccc(Cl)cc3Cl)c2=O)cc1 [1507-22]
% Inhibition TF-VIIa (30 µM) ([1]; at 30 µM inhibitor): 45%

Structure (SMILES): C[C@H](C(=O)NCc1ccc(C(=N)N)cc1)n1c(-c2ccccc2)c(Cl)nc(NC2CCC2)c1=O [Example 1517-11]
% Inhibition Factor Xa (30 µM) (Human factor Xa): 0%

Structure (SMILES): CSCC(C(=O)NCc1ccc(C(=N)N)cc1)n1c(-c2ccccc2)c(Cl)nc(NC2CCC2)c1=O (stereo not shown) [Example 1517-10]
% Inhibition Factor Xa (30 µM) (Human factor Xa): 0%

Structure (SMILES): N=C(N)c1ccc(CNC(=O)Cn2c(-c3ccccc3)c(Cl)nc(NCc3cc(C(F)(F)F)cc(C(F)(F)F)c3)c2=O)cc1 [1507-40]
% Inhibition Factor Xa (30 µM) (Human factor Xa): 11%

Structure (SMILES): N=C(N)c1ccc(CNC(=O)Cn2c(-c3ccc4c(c3)OCO4)c(Cl)nc(NCc3ccncc3)c2=O)cc1 [1471-43]
% Inhibition Factor Xa (30 µM) (Human factor Xa): 18%

Other lines, results leading:

% Inhibition TF-VIIa (100 µM) ([1]; inhibitor at 100 µM): 2%
% Inhibition Factor Xa (100 µM) (Human factor Xa; inhibitor at 100 µM): 3%
Structure (SMILES): COc1ccc(-c2c(Cl)nc(NCCc3cccc(Cl)c3)c(=O)n2CC(=O)NCCc2ccncc2)cc1 [Example E-0103]

% Inhibition TF-VIIa (100 µM) ([1]; inhibitor at 100 µM): 0%
% Inhibition Factor Xa (100 µM) (Human factor Xa; inhibitor at 100 µM): 6%
Structure (SMILES): O=C(Cn1c(Cc2ccccc2)c(Cl)nc(NCc2ccccc2)c1=O)NCCc1ccncc1 [Example E-0057]

% Inhibition TF-VIIa (100 µM) ([1]; inhibitor at 100 µM): 0%
% Inhibition Factor Xa (100 µM) (Human factor Xa; inhibitor at 100 µM): 0%
Structure (SMILES): O=C(Cn1c(Cc2ccccc2)c(Cl)nc(NCCc2ccccc2)c1=O)NCCc1ccncc1 [Example E-0058]

% Inhibition TF-VIIa (100 µM) ([1]; inhibitor at 100 µM): 3%
% Inhibition Factor Xa (100 µM) (Human factor Xa; inhibitor at 100 µM): 4%
Structure (SMILES): O=C(Cn1c(-c2cccc(Cl)c2)c(Cl)nc(NCCc2ccccc2)c1=O)NCCc1cccnc1 [Example E-0089]

IC50 ([1]; read-out: IC50 TF-VIIa): 67 nM
% Inhibition Factor Xa at 100 μM (Human factor Xa; at 100 μM inhibitor): 44% at 100 μM
Structure (SMILES): CC(C)Nc1nc(Cl)c(-c2cc(N)cc(C(=O)NCc3ccc(Br)cc3)c2)n(CC(=O)NCc2ccc(C(=N)N)cc2)c1=O [Example 128-8]

% Inhibition TF-VIIa (100 µM) ([1]; inhibitor at 100 µM): 0%
% Inhibition Factor Xa (100 µM) (Human factor Xa; inhibitor at 100 µM): 0%
Structure (SMILES): Cc1c(Cl)nc(NCCc2ccc(Cl)cc2)c(=O)n1CC(=O)NCCc1ccncc1 [Example E-0004]

% Inhibition TF-VIIa (100 µM) ([1]; inhibitor at 100 µM): 0%
% Inhibition Factor Xa (100 µM) (Human factor Xa; inhibitor at 100 µM): 0%
Structure (SMILES): O=C(Cn1c(-c2ccc(Cl)cc2)c(Cl)nc(NCCc2cccnc2)c1=O)NCCc1ccncc1 [Example E-0029]

% Inhibition TF-VIIa (100 µM) ([1]; inhibitor at 100 µM): 0%
% Inhibition Factor Xa (100 µM) (Human factor Xa; inhibitor at 100 µM): 0%
Structure (SMILES): O=C(Cn1c(-c2ccc(Cl)cc2)c(Cl)nc(NCc2ccccc2)c1=O)NCCc1ccncc1 [Example E-0025]

IC50 ([1]; read-out: IC50 TF-VIIa): 52 nM
Structure (SMILES): CC(C)Nc1nc(Cl)c(-c2cc(N)cc(C(=O)NCC(c3ccccc3)c3ccccc3)c2)n(CC(=O)NCc2ccc(C(=N)N)cc2)c1=O [Example 128-22]

IC50 ([1]; read-out: IC50 TF-VIIa): 9 nM
Structure (SMILES): CC(C)Nc1nc(Cl)c(-c2cc(N)cc(C(=O)NCc3ccccc3Cl)c2)n(CC(=O)NCc2ccc(C(=N)N)cc2)c1=O [Example 128-10]

IC50 ([1]; read-out: IC50 TF-VIIa): 37 nM
Structure (SMILES): CC(C)Nc1nc(Cl)c(-c2cc(N)cc(C(=O)NCCCc3ccccc3)c2)n(CC(=O)NCc2ccc(C(=N)N)cc2)c1=O [Example 128-21]

IC50 ([1]; read-out: IC50 TF-VIIa): 18.7 nM
Structure (SMILES): CC(C)Nc1nc(Cl)c(-c2cc(N)cc(C(=O)NC3CCc4ccccc4C3)c2)n(CC(=O)NCc2ccc(C(=N)N)cc2)c1=O (stereo not shown) [Example 128-24]

IC50 ([1]; read-out: IC50 TF-VIIa): 33.7 nM
Structure (SMILES): CC(C)Nc1nc(Cl)c(-c2cc(N)cc(C(=O)NCc3ccc4ccccc4c3)c2)n(CC(=O)NCc2ccc(C(=N)N)cc2)c1=O [Example 128-23]
